According to ChEMBL document CHEMBL4396870, “Pharmacological Chaperones for the Treatment of α-Mannosidosis” (J Med Chem, 2019):
Active and inactive are the calls of the source. No cut-off for these calls is given here.

Tests used:
[1] = system: Saccharomyces cerevisiae; assay: Inhibition of yeast isomaltase assessed as residual hydrolytic activity up to 2 mM after 10 to 30 mins by spectrophotometric analysis
[2] = system: Saccharomyces cerevisiae; assay: Inhibition of yeast alpha-glucosidase assessed as residual hydrolytic activity up to 2 mM after 10 to 30 mins by spectrophotometric analysis
[3] = target: Alpha-galactosidase (Coffea arabica) (UniProt Q42656); assay: Inhibition of green coffee alpha-galactosidase assessed as residual hydrolytic activity up to 2 mM after 10 to 30 mins by spectrophotometric analysis
Alpha-galactosidase (Coffea arabica), sequence (Q42656 16-378 limits assumed): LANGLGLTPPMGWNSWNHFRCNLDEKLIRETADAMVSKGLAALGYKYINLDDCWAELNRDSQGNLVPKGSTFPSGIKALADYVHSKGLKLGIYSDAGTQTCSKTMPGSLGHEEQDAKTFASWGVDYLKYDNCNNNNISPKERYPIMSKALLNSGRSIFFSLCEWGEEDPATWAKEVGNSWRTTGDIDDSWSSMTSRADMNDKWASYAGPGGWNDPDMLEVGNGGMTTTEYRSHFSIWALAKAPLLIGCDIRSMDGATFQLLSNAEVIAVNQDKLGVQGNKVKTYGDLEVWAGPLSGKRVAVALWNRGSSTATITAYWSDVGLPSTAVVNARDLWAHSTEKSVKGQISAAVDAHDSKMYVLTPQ

[4] = system: Aspergillus niger; assay: Inhibition of Aspergillus niger amyloglucosidase assessed as residual hydrolytic activity up to 2 mM after 10 to 30 mins by spectrophotometric analysis
[5] = target: Beta-galactosidase (Escherichia coli) (UniProt Q8VNN2); assay: Inhibition of Escherichia coli beta-galactosidase assessed as residual hydrolytic activity up to 2 mM after 10 to 30 mins by spectrophotometric analysis
Beta-galactosidase (Escherichia coli), sequence (Q8VNN2 whole entry, looked up): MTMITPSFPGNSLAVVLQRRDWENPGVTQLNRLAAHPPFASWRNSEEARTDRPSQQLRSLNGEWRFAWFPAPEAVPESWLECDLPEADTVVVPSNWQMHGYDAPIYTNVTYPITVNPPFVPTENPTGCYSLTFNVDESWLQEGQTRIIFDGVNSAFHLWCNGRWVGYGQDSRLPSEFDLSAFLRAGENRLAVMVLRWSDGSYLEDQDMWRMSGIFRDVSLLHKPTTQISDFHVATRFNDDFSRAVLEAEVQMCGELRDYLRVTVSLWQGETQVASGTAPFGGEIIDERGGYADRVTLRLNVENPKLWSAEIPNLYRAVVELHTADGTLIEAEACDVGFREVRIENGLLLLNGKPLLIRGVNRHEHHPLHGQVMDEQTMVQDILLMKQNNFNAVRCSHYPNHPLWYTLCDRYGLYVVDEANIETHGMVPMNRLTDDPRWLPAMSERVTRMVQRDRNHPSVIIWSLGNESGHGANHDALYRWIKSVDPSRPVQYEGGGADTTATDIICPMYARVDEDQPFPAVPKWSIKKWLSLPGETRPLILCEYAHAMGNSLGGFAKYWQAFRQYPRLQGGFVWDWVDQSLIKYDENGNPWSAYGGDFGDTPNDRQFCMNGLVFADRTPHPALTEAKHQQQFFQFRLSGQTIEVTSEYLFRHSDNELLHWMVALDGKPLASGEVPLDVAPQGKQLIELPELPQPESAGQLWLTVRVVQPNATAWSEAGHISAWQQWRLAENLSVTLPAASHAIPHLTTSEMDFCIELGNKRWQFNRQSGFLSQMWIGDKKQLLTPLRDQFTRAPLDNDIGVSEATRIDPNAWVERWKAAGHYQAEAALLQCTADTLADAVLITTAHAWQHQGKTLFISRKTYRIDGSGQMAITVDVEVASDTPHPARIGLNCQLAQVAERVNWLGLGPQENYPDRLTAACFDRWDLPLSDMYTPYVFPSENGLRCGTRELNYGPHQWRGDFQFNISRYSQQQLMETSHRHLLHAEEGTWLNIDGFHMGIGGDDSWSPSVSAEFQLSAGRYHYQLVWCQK

[6] = system: Helix pomatia; assay: Inhibition of Helix pomatia beta-mannosidase assessed as residual hydrolytic activity up to 2 mM after 10 to 30 mins by spectrophotometric analysis
[7] = target: T1, Alpha-mannosidase (Canavalia ensiformis, UniProt C0HJB3); assay: Inhibition of jack bean Lysosomal alpha-mannosidase assessed as residual hydrolytic activity after 10 to 30 mins by spectrophotometric analysis
T1 sequence (C0HJB3 whole entry): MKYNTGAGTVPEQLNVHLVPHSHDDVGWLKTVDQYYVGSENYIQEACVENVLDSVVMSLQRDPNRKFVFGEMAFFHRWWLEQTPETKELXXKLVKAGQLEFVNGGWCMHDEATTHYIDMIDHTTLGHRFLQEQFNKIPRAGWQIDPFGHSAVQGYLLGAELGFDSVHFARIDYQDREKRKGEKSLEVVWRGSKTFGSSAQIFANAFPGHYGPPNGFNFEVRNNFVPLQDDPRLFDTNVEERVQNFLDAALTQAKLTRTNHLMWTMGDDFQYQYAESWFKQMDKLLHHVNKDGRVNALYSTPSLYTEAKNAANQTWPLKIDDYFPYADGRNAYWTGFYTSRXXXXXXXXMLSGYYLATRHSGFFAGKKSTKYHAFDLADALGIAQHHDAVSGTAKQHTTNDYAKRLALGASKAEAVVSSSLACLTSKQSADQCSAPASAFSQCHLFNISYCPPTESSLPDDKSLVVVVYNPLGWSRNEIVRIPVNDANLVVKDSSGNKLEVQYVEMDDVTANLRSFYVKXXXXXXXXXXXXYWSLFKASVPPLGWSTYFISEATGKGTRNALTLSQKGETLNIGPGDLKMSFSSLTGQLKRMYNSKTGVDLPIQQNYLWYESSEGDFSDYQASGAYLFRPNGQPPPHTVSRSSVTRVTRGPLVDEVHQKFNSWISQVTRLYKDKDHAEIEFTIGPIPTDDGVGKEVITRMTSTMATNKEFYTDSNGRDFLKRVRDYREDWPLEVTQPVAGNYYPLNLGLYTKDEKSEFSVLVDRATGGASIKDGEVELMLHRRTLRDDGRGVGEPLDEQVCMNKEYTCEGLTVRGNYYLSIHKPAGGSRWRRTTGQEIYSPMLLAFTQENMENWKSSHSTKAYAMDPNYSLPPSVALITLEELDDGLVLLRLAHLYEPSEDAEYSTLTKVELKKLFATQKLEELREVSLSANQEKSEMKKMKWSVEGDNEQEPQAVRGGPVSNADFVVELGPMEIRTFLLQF

[8] = Inhibition of bovine liver beta-glucosidase assessed as residual hydrolytic activity after 10 to 30 mins by spectrophotometric analysis; parameters: species or system Bos taurus
[9] = Inhibition of Helix pomatia beta-mannosidase assessed as residual hydrolytic activity after 10 to 30 mins by spectrophotometric analysis; conditions: read-out: Ki
[10] = Inhibition of almond beta-glucosidase assessed as residual hydrolytic activity after 10 to 30 mins by spectrophotometric analysis; parameters: species or system Prunus dulcis

With O=C1OC[C@@H]2[C@@H](O)[C@H](O)[C@H](O)[C@@H](NCCCCCCn3cc(COC[C@H]4O[C@@H]5O[C@H]6[C@H](O)[C@@H](OCc7cn(CCCCCCN[C@@H]8[C@@H](O)[C@@H](O)[C@H](O)[C@H]9COC(=O)N98)nn7)[C@@H](O[C@H]7[C@H](O)[C@@H](OCc8cn(CCCCCCN[C@@H]9[C@@H](O)[C@@H](O)[C@H](O)[C@H]%10COC(=O)N%109)nn8)[C@@H](O[C@H]8[C@H](O)[C@@H](OCc9cn(CCCCCCN[C@@H]%10[C@@H](O)[C@@H](O)[C@H](O)[C@H]%11COC(=O)N%11%10)nn9)[C@@H](O[C@H]9[C@H](O)[C@@H](OCc%10cn(CCCCCCN[C@@H]%11[C@@H](O)[C@@H](O)[C@H](O)[C@H]%12COC(=O)N%12%11)nn%10)[C@@H](O[C@H]%10[C@H](O)[C@@H](OCc%11cn(CCCCCCN[C@@H]%12[C@@H](O)[C@@H](O)[C@H](O)[C@H]%13COC(=O)N%13%12)nn%11)[C@@H](O[C@H]%11[C@H](O)[C@@H](OCc%12cn(CCCCCCN[C@@H]%13[C@@H](O)[C@@H](O)[C@H](O)[C@H]%14COC(=O)N%14%13)nn%12)[C@@H](O[C@H]4[C@H](O)[C@H]5OCc4cn(CCCCCCN[C@@H]5[C@@H](O)[C@@H](O)[C@H](O)[C@H]%12COC(=O)N%125)nn4)O[C@@H]%11COCc4cn(CCCCCCN[C@@H]5[C@@H](O)[C@@H](O)[C@H](O)[C@H]%11COC(=O)N%115)nn4)O[C@@H]%10COCc4cn(CCCCCCN[C@@H]5[C@@H](O)[C@@H](O)[C@H](O)[C@H]%10COC(=O)N%105)nn4)O[C@@H]9COCc4cn(CCCCCCN[C@@H]5[C@@H](O)[C@@H](O)[C@H](O)[C@H]9COC(=O)N95)nn4)O[C@@H]8COCc4cn(CCCCCCN[C@@H]5[C@@H](O)[C@@H](O)[C@H](O)[C@H]8COC(=O)N85)nn4)O[C@@H]7COCc4cn(CCCCCCN[C@@H]5[C@@H](O)[C@@H](O)[C@H](O)[C@H]7COC(=O)N75)nn4)O[C@@H]6COCc4cn(CCCCCCN[C@@H]5[C@@H](O)[C@@H](O)[C@H](O)[C@H]6COC(=O)N65)nn4)nn3)N12 the inhibition [1] was “Active”, the inhibition [2] was “Active” and the inhibition [3] was “Active”. The inhibition [4] was “Active”, the inhibition [5] was “Active” and the Activity [6] was “Active”.
N[C@@H]1[C@@H](O)[C@@H](O)[C@H](O)[C@H]2COC(=O)N12 gave a Ki [7] of 7 µM, a Ki [8] of 20 to 200 µM and a Ki [9] of 20 to 200 µM. It also gave a Ki [10] of 20 to 200 µM.
